Read-outs that look alike come from different tables or passages of the source.
Experiments:
[1] = test system: human neutrophil adhesion to TNFα, IL-1α, and LPS-stimulated human umbilical vein endothelial cells; assay: Inhibition of human neutrophil adhesion to stimulated HUVEC (51Cr-labeled neutrophils); type: cell-based
Text: METHOD FOR DETERMINING THE INHIBITION OF HUMAN NEUTROPHIL ADHESION TO TNFα, IL-1α, AND LPS-STIMULATED HUMAN UMBILICAL VEIN ENDOTHELIAL CELLS BY 3-ALKYLOXY-, ARYLOXY-, OR ARYLALKYLOXY BENZO[b]THIOPHENE-2-CARBOXAMIDES
Neutrophils were isolated from anticoagulant-treated venous blood obtained from healthy human volunteers according to the method of Ferrante and Thong (J. Immunol. Methods 1978;24:389-93).
Second passage human umbilical vein endothelial cells (HUVEC) (Clonetics, San Diego, Calif.) were seeded into Falcon 24-well cell culture plates (Becton Dickinson, Lincoln Park, N.J.) at approximately 2×10^4 cells per well. The cells were grown to confluent monolayers in endothelial basal medium (EBM, Clonetics) supplemented with 5% fetal calf serum (Hyclone Laboratories, Logan, Utah), 10 ng/mL EGF, 1 μg/mL hydrocortisone, 0.4% bovine brain extract (Clonetics) in 5% CO2 at 37° C.
Neutrophils (30×10^6) were labeled for 60 minutes at 37° C. with 100 μCi Na^51 CrO4 (ICN Biomedicals, Costa Mesa, Calif.) in 2.0 mL Ca^2+ - and Mg^2+ -free Hanks' balanced salt solution (HBSS, GIBCO Laboratories, Grand Island, N.Y.). The cells were washed two times in HBSS and suspended in unsupplemented EBM.
Stimulation of HUVEC with tumor necrosis factor-α (TNFα) (Genzyme, Cambridge, Mass.) , interleukin (IL-1α) (Genzyrne) or E. coli 0111:B4 lipopolysaccharide (LPS) (Sigma) in the presence or absence of drug was initiated 4 hours prior to the addition of neutrophils. The suspension medium was unsupplemented EBM or supplemented EBM for studies with cytokines or LPS, respectively. […] Immediately prior to addition of ^51 Cr-labeled neutrophils to the HUVEC monolayers, the cultures were washed with 1 mL unsupplemented media to remove stimulus and/or drug. Neutrophils (5×10^5) were then added to the HUVEC in 0.5 mL unsupplemented media and incubated at 37° C. for 30 minutes. Nonadherent neutrophils were removed by aspiration. Following an additional wash, adherent neutrophils were lysed with 0.5 mL 1N NH4 OH overnight at 37° C. Lysates were collected and the radioactivity in each well was determined by gamma ray spectroscopy.

Cyclooxygenase = assay: ARBC: cyclooxygenase (PGF2α) in RBL-1 cells; type: cell-based, rat; conditions: Table 4, class symbol
Description: (§1) The testing methods used are described as follows:
(§2) The rat basophilic leukemia cell line (RBL-1) was obtained from the American Type Culture Collection (Rockville, Md.).
(§3) Radioimmunoassay (RIA) kits of LTB4 and PGF2α were obtained from Arnersham (Arlington Heights, IL) and Seragen (Boston, Mass.), respectively.
(§4) All tissue culture media were obtained from GIBCO (Grand Island, N.Y.).
(§5) RBL-1 cells are grown in suspension culture in Eagle's minimum essential medium supplemented with 12% fetal bovine serum at 37° C. in an incubator supplied with air-5% carbon dioxide. Cells are harvested by centrifugation. They are washed with cold phosphate-buffered saline, pH 7.4 (PBS; NaCl, 7.1 g; Na2 HPO4, 1.15 g; KH2 PO4, 0.2 g; and KCl, 0.2 g/L). Cells are finally suspended in PBS containing 1.0 mM calcium at a density of 2×10^6 cells/mL. Cells are incubated with and without test agent (in DMSO) (1% DMSO is without effect on arachidonic acid metabolism) for 10 minutes at room temperature. Calcium ionophore A23187 (5 μM) is added and cells are incubated for 7 minutes at 37° C. The reaction is stopped by chilling the tubes on ice for 10 minutes. Cells are separated by centrifugation and the supernatant is stored at -20° C. Aliquots (100 μL) are analyzed for LTB4 and PGF2α using radioimmunoassay kits as provided by the supplier.

5-Lipoxygenase [2] = biological target: T1, 5-Lipoxygenase (Rattus norvegicus, UniProt P12527); assay: ARBL: 5-lipoxygenase (LTB4) in RBL-1 cells; type: cell-based; parameters: endogenous in cells; host or cells: RBL-1 (rat basophilic leukemia); conditions: Table 4; for inhibition at 10 µM: RBL-1, class symbol
T1 sequence (P12527 1-673): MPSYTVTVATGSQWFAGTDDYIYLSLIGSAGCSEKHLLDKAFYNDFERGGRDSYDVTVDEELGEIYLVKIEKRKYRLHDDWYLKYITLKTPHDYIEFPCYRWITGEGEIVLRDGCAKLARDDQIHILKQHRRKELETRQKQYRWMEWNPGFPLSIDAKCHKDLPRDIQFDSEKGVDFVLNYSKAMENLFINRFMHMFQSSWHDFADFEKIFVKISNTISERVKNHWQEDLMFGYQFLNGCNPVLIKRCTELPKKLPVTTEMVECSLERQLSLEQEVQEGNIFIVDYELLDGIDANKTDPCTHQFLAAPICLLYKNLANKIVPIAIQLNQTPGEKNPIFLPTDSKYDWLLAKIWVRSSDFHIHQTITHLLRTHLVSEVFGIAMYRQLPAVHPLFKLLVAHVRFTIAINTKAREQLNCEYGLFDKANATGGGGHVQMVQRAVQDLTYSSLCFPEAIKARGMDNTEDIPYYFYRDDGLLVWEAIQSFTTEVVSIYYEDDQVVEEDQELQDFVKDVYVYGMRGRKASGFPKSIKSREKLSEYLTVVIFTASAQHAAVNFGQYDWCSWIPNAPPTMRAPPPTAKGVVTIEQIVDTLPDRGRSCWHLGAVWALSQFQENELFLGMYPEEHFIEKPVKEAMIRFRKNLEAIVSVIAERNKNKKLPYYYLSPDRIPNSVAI
Description: as §1, §2, §3, §4, §5

5-Lipoxygenase [3] = biological target: T1, 5-Lipoxygenase; assay: 5-lipoxygenase inhibition assay (20,000 xg supernatant of RBL cells); type: biochemical; parameters: activity contained in the 20,000 xg supernatant from cultured rat basophilic leukemia (RBL) cells; endogenous in cells; host or cells: RBL (rat basophilic leukemia) cells, 20,000 xg supernatant
Description: PROTOCOL FOR 5-LIPOXYGENASE INHIBITION ASSAY
Incubations contained 5% (v/v) RBL 20,000 xg supernatant in assay buffer (10 mM BES, 10 mM PIPES, 1 mM EDTA, 0.75 mM CaC12, 1 mMATP, 100 mMNaCl, pH 6.8). DMSO vehicle (2% v/v) with and without inhibitors is preincubated with the enzyme for 20 minutes at 37° C. before initiating the 5-lipoxygenase catalyzed reaction by adding […] [^14 C]arachidonic acid (55.8 mCi/mmol, New England Nuclear, Boston, Mass.) dissolved in 5 μL 0,028% (v/v) aqueous NH4 OH. After 20 minutes of additional incubation at 37° C., reactions are terminated by the addition of three volumes of methanol containing 100 μg triphenylphosphine. Samples are then analyzed by HPLC with radiometric detection for 5-1ipoxygenase reaction products.
All treatments are evaluated in duplicate and percent inhibition is computed by comparing the products formed in treatment incubations to the mean product formation in the vehicle control group.

[4] = test system: mycobacterium footpad edema; assay: Inhibition of mycobacterium footpad edema (MFE); type: in vivo, rat; conditions: rats
Description: METHOD FOR DETERMINING THE INHIBITION OF MYCOBACTERIUM FOOTPAD EDEMA BY […]HOXY-3-([…]HYLETHOXY) BENZO[b]THIOPHENE-2-CARBOXAMIDE-1-OXIDE Mycobacterium butyricum (5 mg/mL) was prepared by sonication in paraffin oil for 10 minutes in an ice bath. Footpad edema was induced on Day 0 by injecting 0.1 mL of the Mycobacterium mixture into the left hindpaw of lightly anesthetized rats. Swelling in the injected hindpaw was determined by mercury plethysmography on Days 1, 2, and 3. Groups of rats were treated with test compounds (suspended in 0.5% hydroxypropyl methylcellulose with 0.2% Tween 80 or vehicle 1 hour before Mycobacterium injection and on Days 1 and 2. Inhibition of swelling is determined by comparing the change in hindpaw volume in compound- and vehicle-treated rats.

[5] = Table 4, class symbol, read-out: 5-LO % Inhibition at 30 μM

Structure (SMILES) | inhibition at 100 µM ([1]; Table 1, at 100 μM) [%] | ARBC % Inhibition at 10 μM (Cyclooxygenase) | inhibition at 10 µM (5-Lipoxygenase [2]) [%] | inhibition at 30 µM (5-Lipoxygenase [3]; [5]) [%] | IC50 ([1]; Table 2, footnote b) [µM] | IC50 (5-Lipoxygenase [2]; ARBL/ARBC IC50 (μM) or % inhibition at 10 μM, RBL-1 cells, A23187) [µM] | inhibition at 30 µM (5-Lipoxygenase [3]; Table 4, read-out: 5-LO % Inhibition at 30 μM) [%] | inhibition at 100 µM ([1]; Table 3, at 100 μM) [%] | ED40 ([4]; Mycobacterium, dosed 1 hour before injection and on Days 1 and 2, read-out: ID40 in mycobacterium footpad edema (MFE)) [mg/kg] | activity in mycobacterium footpad edema (in words) [4]
CC(C)Oc1c(C(N)=O)sc2ccccc12 [Example 2, 3-(1-methylethoxy)benzo[b]thiophene-2-carboxamide] | 60 | N (Less than 40% inhibition at 10 μM) | < 40 | < 4 |  |  |  |  |  | 
COc1ccc2sc(C(N)=O)c(Oc3ccccc3)c2c1 [Example 9, 5-Methoxy-3-(phenoxy)benzo[b]thiophene-2-carboxamide] | 59 | N (Less than 40% inhibition at 10 μM) | < 40 | < 4 |  |  |  |  |  | 
COc1ccc2sc(C(=O)Nc3ccc(C(=O)O)cc3)c(OC(C)C)c2c1 [Example 12, 4-[[[5-Methoxy-3-(1-methylethoxy)benzo[b]thien-2-yl]carbonyl]amino]benzoic acid] |  |  |  |  | 50 | 36 | 16 |  |  | 
COc1ccc2c(c1)c(OC(C)C)c(C(N)=O)[s+]2[O-] (centres unmarked) [Example 28, 5-Methoxy-3-(1-methylethoxy)benzo[b]thiophene-2-carboxamide-1-oxide] |  |  |  |  |  |  |  | 83 | 10.9 | active
